Measured values: PubChem BioAssay (NCI)
“And” between values parts separate entries of the source, which are not always exact repeats. Equal entries are not always repeated.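 The compound was tested at five concentrations on cells cultured in 96-well plates, with a 48-hour exposure period. GI50 marks 50% less growth. Definition used: TGI = concentration required for complete inhibition of growth.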

What was measured:
Experiment in all cases: NCI-60 cell line screen, 48 h
OVCAR-3 ovarian = test system: OVCAR-3 ovarian
RXF 393 renal = test system: RXF 393 renal
BT-549 breast = test system: BT-549 breast
A549 NSCLC = test system: A549 NSCLC
ACHN renal = test system: ACHN renal
HL-60(TB) leukemia = test system: HL-60(TB) leukemia
MDA-MB-435 = test system: MDA-MB-435
PC-3 prostate = test system: PC-3 prostate
HCT-116 colon = test system: HCT-116 colon
HCC-2998 colon = test system: HCC-2998 colon

SMILES: CCCC(=O)O
- TGI (OVCAR-3 ovarian): > 18700 µM
- TGI (RXF 393 renal): 16100 µM
- TGI (BT-549 breast): > 18700 µM
- TGI (A549 NSCLC): > 18700 µM
- TGI (ACHN renal): 14500 µM
- GI50 (HL-60(TB) leukemia): 1120 µM
- TGI (HL-60(TB) leukemia): > 18700 µM
- TGI (MDA-MB-435): > 18700 µM
- TGI (PC-3 prostate): > 18700 µM
- TGI (HCT-116 colon): > 18700 µM
- GI50 (HCC-2998 colon): 10800 µM
- TGI (HCC-2998 colon): > 18700 µM

SMILES: O=C1CSC2(CC(/C=C/c3ccccc3)=NN2c2cccc(S(=O)(=O)O)c2)N1c1nc2ccccc2s1 (stereo not drawn)
- TGI (RXF 393 renal): 51.7 µM
- TGI (BT-549 breast): 52.8 µM
- TGI (A549 NSCLC): > 100 µM
- TGI (ACHN renal): > 100 µM
- TGI (HL-60(TB) leukemia): 94.6 µM
- TGI (MDA-MB-435): 37.2 µM
- TGI (PC-3 prostate): 59.3 µM
- TGI (HCT-116 colon): > 100 µM
- TGI (HCC-2998 colon): > 100 µM

SMILES: Cc1ccc(C)n1-c1ccccc1C1SCCCS1
- TGI (OVCAR-3 ovarian): > 100 µM
- TGI (RXF 393 renal): > 100 µM
- TGI (BT-549 breast): > 100 µM
- TGI (A549 NSCLC): > 100 µM
- TGI (ACHN renal): > 100 µM
- TGI (HL-60(TB) leukemia): > 100 µM
- TGI (MDA-MB-435): > 100 µM
- TGI (PC-3 prostate): > 100 µM
- TGI (HCT-116 colon): > 100 µM
- TGI (HCC-2998 colon): > 100 µM

SMILES: CN1C/C(=C\c2cccs2)C2=NC(=S)NC(c3cccs3)C2C1 (stereo not drawn)
- TGI (OVCAR-3 ovarian): > 100 µM
- TGI (RXF 393 renal): > 100 µM
- TGI (BT-549 breast): > 100 µM
- TGI (A549 NSCLC): > 100 µM
- TGI (ACHN renal): > 100 µM
- TGI (HL-60(TB) leukemia): 19.1 µM
- TGI (MDA-MB-435): > 100 µM
- TGI (PC-3 prostate): > 100 µM
- TGI (HCT-116 colon): > 100 µM
- TGI (HCC-2998 colon): > 100 µM

SMILES: c1ccc(CNC2CC(NCc3ccccn3)CC(NCc3ccccn3)C2)nc1 (stereo not drawn)
- GI50 (OVCAR-3 ovarian): 4.59 µM
- TGI (OVCAR-3 ovarian): 9.72 µM and 12.1 µM and 15.9 µM
- GI50 (RXF 393 renal): 1.98 µM and 4.41 µM
- TGI (RXF 393 renal): 4.11 µM and 9.03 µM and 3.83 µM
- GI50 (BT-549 breast): 18.2 µM
- TGI (BT-549 breast): 17.1 µM and 10.5 µM and 38 µM
- TGI (A549 NSCLC): 6.47 µM and 6.12 µM
- TGI (ACHN renal): 47.3 µM and 25 µM and 35.7 µM
- GI50 (HL-60(TB) leukemia): 2.78 µM and 1.23 µM
- TGI (HL-60(TB) leukemia): 10.5 µM and 10.2 µM
- GI50 (MDA-MB-435): 3.84 µM
- TGI (MDA-MB-435): 9.45 µM and 8.78 µM and 15.5 µM
- GI50 (PC-3 prostate): 2.24 µM and 4.59 µM and 2.02 µM
- TGI (PC-3 prostate): 5.68 µM and 8.75 µM and 3.98 µM
- GI50 (HCT-116 colon): 1.86 µM
- TGI (HCT-116 colon): 5.27 µM and 7.2 µM and 3.68 µM
- TGI (HCC-2998 colon): 3.72 µM

SMILES: CCc1nn(CN2CCN(C)CC2)c(=S)n1/N=C\c1ccc(-c2ccc([N+](=O)[O-])cc2)o1
- TGI (OVCAR-3 ovarian): > 100 µM
- TGI (RXF 393 renal): 82.5 µM
- TGI (BT-549 breast): > 100 µM
- TGI (A549 NSCLC): > 100 µM
- TGI (ACHN renal): > 100 µM
- TGI (HL-60(TB) leukemia): > 100 µM
- TGI (MDA-MB-435): > 100 µM
- TGI (PC-3 prostate): > 100 µM
- TGI (HCT-116 colon): > 100 µM
- TGI (HCC-2998 colon): > 100 µM

SMILES: COc1cc(/C=C/C(=O)OCC23CC[C@@]4(C(=O)O)CCC(C)[C@H](C)C4C2=CCC2[C@@]4(C)CC[C@H](O)C(C)(C)C4CC[C@]23C)ccc1O (stereo partly drawn)
- TGI (OVCAR-3 ovarian): 14.3 µM
- TGI (RXF 393 renal): 47.4 µM
- TGI (BT-549 breast): 50.6 µM
- TGI (A549 NSCLC): 22.6 µM
- TGI (ACHN renal): 8.24 µM
- TGI (HL-60(TB) leukemia): 51.1 µM
- TGI (MDA-MB-435): 57 µM
- TGI (PC-3 prostate): 41.5 µM
- TGI (HCT-116 colon): 46.4 µM
- TGI (HCC-2998 colon): > 100 µM
